Test results reported in the supplement of paper PMC10307832.

Tests used:
Assay in all cases: relative viability (nuclei count vs DMSO), 5 days (fraction); higher = more cells survive
201T = system: 201T
Method in brief: (§1)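 Lung cancer cell lines in 1536-well plates were dosed by pin tool the day after seeding, either with one drug alone or with a fixed anchor-drug dose plus five library-drug doses (not always all listed) in √10 steps. After 5 days, cells were fixed and their nuclei stained in one step (final 0.05% Triton X-100, 1% formaldehyde, 1 ug/ml Hoechst), then counted on 4× images. Relative viability is the nuclei count in treated wells divided by that in vehicle wells. Values are medians of duplicate plates.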

BEN = system: BEN
Method in brief: as §1

COR-L 105 = system: COR-L 105
Method in brief: as §1

EKVX = system: EKVX
Method in brief: as §1

EPLC-272H = system: EPLC-272H
Method in brief: as §1

H3255 = system: H3255
Method in brief: as §1

HCC-44 = system: HCC-44
Method in brief: as §1

HCC-827 = system: HCC-827
Method in brief: as §1

HOP-62 = system: HOP-62
Method in brief: as §1

LCLC-97TM1 = system: LCLC-97TM1
Method in brief: as §1

LOU-NH91 = system: LOU-NH91
Method in brief: as §1

LU99A = system: LU99A
Method in brief: as §1

NCI-H1395 = system: NCI-H1395
Method in brief: as §1

NCI-H1437 = system: NCI-H1437
Method in brief: as §1

NCI-H1666 = system: NCI-H1666
Method in brief: as §1

NCI-H1975 = system: NCI-H1975
Method in brief: as §1

NCI-H2085 = system: NCI-H2085
Method in brief: as §1

NCI-H2087 = system: NCI-H2087
Method in brief: as §1

NCI-H358 = system: NCI-H358
Method in brief: as §1

NCI-H647 = system: NCI-H647
Method in brief: as §1

PC-3 [JPC-3] = system: PC-3 [JPC-3]
Method in brief: as §1

SW 1573 = system: SW 1573
Method in brief: as §1

Work on `O=C(O)c1ccc(-c2c[nH]c3ncc(-c4ccccc4)cc23)cc1C1CCCC1` + Cc1nc(NC(=O)N2CCC[C@H]2C(N)=O)sc1-c1ccnc(C(C)(C)C(F)(F)F)c1 [Alpelisib] (partner 2 µM) yielded a relative viability (201T; first compound 0.04 µM) of 1.01, a relative viability (201T; first compound 0.1265 µM) of 1 and a relative viability (201T; first compound 0.4 µM) of 0.993. For the same compound, the relative viability (201T; first compound 1.265 µM) was 0.935, the relative viability (BEN; first compound 0.04 µM) was 1.28 and the relative viability (BEN; first compound 0.1265 µM) was 1.07. It also gave a relative viability (BEN; first compound 0.4 µM) of 1.01, a relative viability (BEN; first compound 1.265 µM) of 0.913 and a relative viability (COR-L 105; first compound 0.04 µM) of 0.893. It also gave a relative viability (COR-L 105; first compound 0.1265 µM) of 1.02, a relative viability (COR-L 105; first compound 0.4 µM) of 1.04 and a relative viability (COR-L 105; first compound 1.265 µM) of 0.79. It also gave a relative viability (EKVX; first compound 0.04 µM) of 0.984, a relative viability (EKVX; first compound 0.1265 µM) of 0.966 and a relative viability (EKVX; first compound 0.4 µM) of 0.911. The relative viability (EKVX; first compound 1.265 µM) was 0.812, the relative viability (EPLC-272H; first compound 0.04 µM) was 0.79 and the relative viability (EPLC-272H; first compound 0.1265 µM) was 0.974. The relative viability (EPLC-272H; first compound 0.4 µM) was 0.949, the relative viability (EPLC-272H; first compound 1.265 µM) was 0.633 and the relative viability (H3255; first compound 0.04 µM) was 0.931. It also gave a relative viability (H3255; first compound 0.1265 µM) of 0.776, a relative viability (H3255; first compound 0.4 µM) of 0.715 and a relative viability (H3255; first compound 1.265 µM) of 0.769. For the same compound, the relative viability (HCC-44; first compound 0.04 µM) was 0.889, the relative viability (HCC-44; first compound 0.1265 µM) was 0.813 and the relative viability (HCC-44; first compound 0.4 µM) was 0.848. It also gave a relative viability (HCC-44; first compound 1.265 µM) of 0.477, a relative viability (HCC-827; first compound 0.04 µM) of 0.847 and a relative viability (HCC-827; first compound 0.1265 µM) of 0.988. For the same compound, the relative viability (HCC-827; first compound 0.4 µM) was 0.89, the relative viability (HCC-827; first compound 1.265 µM) was 0.747 and the relative viability (HOP-62; first compound 0.04 µM) was 0.709. For the same compound, the relative viability (HOP-62; first compound 0.1265 µM) was 1.02, the relative viability (HOP-62; first compound 0.4 µM) was 0.942 and the relative viability (HOP-62; first compound 1.265 µM) was 0.922. For the same compound, the relative viability (LCLC-97TM1; first compound 0.04 µM) was 0.278, the relative viability (LCLC-97TM1; first compound 0.1265 µM) was 0.313 and the relative viability (LCLC-97TM1; first compound 0.4 µM) was 0.239. It also gave a relative viability (LCLC-97TM1; first compound 1.265 µM) of 0.264, a relative viability (LOU-NH91; first compound 0.04 µM) of 0.756 and a relative viability (LOU-NH91; first compound 0.1265 µM) of 0.803. It also gave a relative viability (LOU-NH91; first compound 0.4 µM) of 0.68, a relative viability (LOU-NH91; first compound 1.265 µM) of 0.608 and a relative viability (LU99A; first compound 0.04 µM) of 0.597. The relative viability (LU99A; first compound 0.1265 µM) was 0.615, the relative viability (LU99A; first compound 0.4 µM) was 0.485 and the relative viability (LU99A; first compound 1.265 µM) was 0.425. For the same compound, the relative viability (NCI-H1395; first compound 0.04 µM) was 1.35, the relative viability (NCI-H1395; first compound 0.1265 µM) was 1.01 and the relative viability (NCI-H1395; first compound 0.4 µM) was 1.1. For the same compound, the relative viability (NCI-H1395; first compound 1.265 µM) was 0.769, the relative viability (NCI-H1437; first compound 0.04 µM) was 0.998 and the relative viability (NCI-H1437; first compound 0.1265 µM) was 0.951. It also gave a relative viability (NCI-H1437; first compound 0.4 µM) of 0.914, a relative viability (NCI-H1437; first compound 1.265 µM) of 0.882 and a relative viability (NCI-H1666; first compound 0.04 µM) of 0.965. For the same compound, the relative viability (NCI-H1666; first compound 0.1265 µM) was 0.897, the relative viability (NCI-H1666; first compound 0.4 µM) was 0.892 and the relative viability (NCI-H1666; first compound 1.265 µM) was 0.367. For the same compound, the relative viability (NCI-H1975; first compound 0.04 µM) was 0.633, the relative viability (NCI-H1975; first compound 0.1265 µM) was 0.817 and the relative viability (NCI-H1975; first compound 0.4 µM) was 0.652. The relative viability (NCI-H1975; first compound 1.265 µM) was 0.578, the relative viability (NCI-H2085; first compound 0.04 µM) was 1.03 and the relative viability (NCI-H2085; first compound 0.1265 µM) was 0.98. It also gave a relative viability (NCI-H2085; first compound 0.4 µM) of 0.944, a relative viability (NCI-H2085; first compound 1.265 µM) of 0.741 and a relative viability (NCI-H2087; first compound 0.04 µM) of 1.01. It also gave a relative viability (NCI-H2087; first compound 0.1265 µM) of 1.06, a relative viability (NCI-H2087; first compound 0.4 µM) of 1.08 and a relative viability (NCI-H2087; first compound 1.265 µM) of 0.844. The relative viability (NCI-H358; first compound 0.04 µM) was 0.767, the relative viability (NCI-H358; first compound 0.1265 µM) was 0.904 and the relative viability (NCI-H358; first compound 0.4 µM) was 0.708. The relative viability (NCI-H358; first compound 1.265 µM) was 0.381, the relative viability (NCI-H647; first compound 0.04 µM) was 1.14 and the relative viability (NCI-H647; first compound 0.1265 µM) was 1.24. It also gave a relative viability (NCI-H647; first compound 0.4 µM) of 1.02, a relative viability (NCI-H647; first compound 1.265 µM) of 0.766 and a relative viability (PC-3 [JPC-3]; first compound 0.04 µM) of 1.05. The relative viability (PC-3 [JPC-3]; first compound 0.1265 µM) was 1.03, the relative viability (PC-3 [JPC-3]; first compound 0.4 µM) was 1.04 and the relative viability (PC-3 [JPC-3]; first compound 1.265 µM) was 0.89. The relative viability (SW 1573; first compound 0.04 µM) was 0.687, the relative viability (SW 1573; first compound 0.1265 µM) was 0.89 and the relative viability (SW 1573; first compound 0.4 µM) was 0.797. For the same compound, the relative viability (SW 1573; first compound 1.265 µM) was 0.891.
